In US10793576B2, “Compound used as Bruton's tyrosine kinase inhibitor and preparation method and application thereof” (Chengdu Brilliant Pharmaceutical Co., LTD., priority 2017, dated 2020):

Biological target: BTK kinase (Homo sapiens (Human), UniProt Q06187)
Experiment: In vitro assay for the inhibition of BTK kinase activity (Mobility-Shift Assay)
Assay type: biochemical
Source text: Mobility-Shift Assay, which is microfluidic chip technology, applies the basic concept of capillary electrophoresis to microfluidic environments. The substrate used for the experiment is a polypeptide with a fluorescent label. Under the action of enzyme in the reaction system, the substrate is transformed into a product, and the charge the substrate carries also changes accordingly. The use of the charge difference between the substrate and the product involved in Mobility-Shift Assay achieves the separating of the two, and they are tested respectively. The test results are expressed by conversion rates.
(3) 100% DMSO was added to the positive control well and the negative control well, respectively;

Sequence of BTK kinase (Q06187 whole entry): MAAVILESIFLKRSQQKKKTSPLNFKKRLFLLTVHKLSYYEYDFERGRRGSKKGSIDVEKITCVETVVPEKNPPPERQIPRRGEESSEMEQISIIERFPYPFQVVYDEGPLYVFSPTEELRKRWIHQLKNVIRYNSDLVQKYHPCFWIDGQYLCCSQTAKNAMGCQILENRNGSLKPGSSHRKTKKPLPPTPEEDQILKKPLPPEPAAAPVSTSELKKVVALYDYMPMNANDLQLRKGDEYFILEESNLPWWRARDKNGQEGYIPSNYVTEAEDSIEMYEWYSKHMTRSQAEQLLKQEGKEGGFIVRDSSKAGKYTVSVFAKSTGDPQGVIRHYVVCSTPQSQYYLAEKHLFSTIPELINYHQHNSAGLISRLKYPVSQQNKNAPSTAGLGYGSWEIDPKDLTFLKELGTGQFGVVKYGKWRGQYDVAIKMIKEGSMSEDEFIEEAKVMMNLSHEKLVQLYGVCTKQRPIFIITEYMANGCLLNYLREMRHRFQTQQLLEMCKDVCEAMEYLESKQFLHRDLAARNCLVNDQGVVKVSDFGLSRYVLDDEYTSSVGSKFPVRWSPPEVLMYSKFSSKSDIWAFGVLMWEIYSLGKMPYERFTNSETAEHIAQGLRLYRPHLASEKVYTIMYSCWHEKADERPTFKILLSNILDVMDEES

Structure (SMILES)	IC50 [nM]
C=CC(=O)N1C[C@@H]2C[C@]1(c1nc(-c3ccc(C(=O)Nc4ccccn4)cc3)c3c(N)nccn13)CCO2 [Example 7]	155
CC#CC(=O)N1C[C@@H]2C[C@]1(c1nc(-c3ccc(C(=O)Nc4ccccn4)cc3)c3c(N)nccn13)CCO2 [Example 8]	197
C=CC(=O)N1CC2C[C@H]1C(c1nc(-c3ccc(C(=O)Nc4ccccn4)cc3)c3c(N)nccn13)N2 (stereo partly drawn) [Example 19]	400
C=CC(=O)N1CC2C[C@H]1C(c1nc(-c3ccc(C(=O)Nc4ccccn4)cc3)c3c(N)nccn13)N2C(C)=O (stereo partly drawn) [Example 20]	372
CC#CC(=O)N1CC2C[C@H]1C(c1nc(-c3ccc(C(=O)Nc4ccccn4)cc3)c3c(N)nccn13)N2 (stereo partly drawn) [Example 21]	672
C=CC(=O)N1C(c2nc(-c3ccc(C(=O)Nc4ccccn4)cc3)c3c(N)nccn23)CC2CC21 (stereo not drawn) [Example 24]	176
CC#CC(=O)N1C(c2nc(-c3ccc(C(=O)Nc4ccccn4)cc3)c3c(N)nccn23)CC2CC21 (stereo not drawn) [Example 25]	342
C=CC(=O)N1CCC2(CC1)CC(c1nc(-c3ccc(C(=O)Nc4ccccn4)cc3)c3c(N)nccn13)CO2 (stereo not drawn) [Example 26]	477
CC#CC(=O)N1CCC2(CC1)CC(c1nc(-c3ccc(C(=O)Nc4ccccn4)cc3)c3c(N)nccn13)CO2 (stereo not drawn) [Example 27]	673
C=CC(=O)NC12CC3CC(C1)CC(c1nc(-c4ccc(C(=O)Nc5ccccn5)cc4)c4c(N)nccn14)(C3)C2 [Example 28]	124
CC#CC(=O)NC12CC3CC(C1)CC(c1nc(-c4ccc(C(=O)Nc5ccccn5)cc4)c4c(N)nccn14)(C3)C2 [Example 29]	216
C=CC(=O)N1CCC2(CC2c2nc(-c3ccc(C(=O)Nc4ccccn4)cc3)c3c(N)nccn23)C1 (stereo not drawn) [Example 30]	724
CC#CC(=O)N1CCC2(CC2c2nc(-c3ccc(C(=O)Nc4ccccn4)cc3)c3c(N)nccn23)C1 (stereo not drawn) [Example 31]	736
CC#CC(=O)N1CCC2CC21c1nc(-c2ccc(C(=O)Nc3ccccn3)cc2)c2c(N)nccn12 (stereo not drawn) [Example 33]	94
C=CC(=O)N1CC2CCC2(c2nc(-c3ccc(C(=O)Nc4ccccn4)cc3)c3c(N)nccn23)C1 (stereo not drawn) [Example 34]	66
CC#CC(=O)N1CC2CCC2(c2nc(-c3ccc(C(=O)Nc4ccccn4)cc3)c3c(N)nccn23)C1 (stereo not drawn) [Example 35]	67
C=CC(=O)N1CC2(CCNCC2)CC1c1nc(-c2ccc(C(=O)Nc3ccccn3)cc2)c2c(N)nccn12 (stereo not drawn) [Example 36]	93
CC#CC(=O)N1CC2(CCNCC2)CC1c1nc(-c2ccc(C(=O)Nc3ccccn3)cc2)c2c(N)nccn12 (stereo not drawn) [Example 37]	46
C=CC(=O)N1CC2COC[C@]2(c2nc(-c3ccc(C(=O)Nc4ccccn4)cc3)c3c(N)nccn23)C1 (stereo partly drawn) [Example 38]	66
CC#CC(=O)N1CC2COC[C@]2(c2nc(-c3ccc(C(=O)Nc4ccccn4)cc3)c3c(N)nccn23)C1 (stereo partly drawn) [Example 39]	68
CC#CC(=O)N1CC2(CC2)C[C@H]1c1nc(-c2ccc(C(=O)Nc3cc(C(F)(F)F)ccn3)cc2)c2c(N)nccn12 [Example 40, (S)-4-(8-amino-3-(5-(but-2-ynoyl)-5-azaspiro[2.4]heptan-6-yl)imidazo[1,5-a]pyrazin-1-yl 1)-N-(4-(trifluoromethyl)pyridin-2-yl)benzamide]	97
C=CC(=O)N1CC2(CC2)C[C@H]1c1nc(-c2ccc(C(=O)Nc3cc(C(F)(F)F)ccn3)cc2)c2c(N)nccn12 [Example 41, (S)-4-(3-(5-acryloyl-5-azaspiro[2.4]heptan-6-yl)-8-aminoimidazo[1,5-a]pyrazin-1-yl)-N-(4-(trifluoromethyl)pyridin-2-yl)benzamide]	52
C=CC(=O)N1C(c2nc(-c3ccc(C(=O)Nc4cc(C(F)(F)F)ccn4)cc3)c3c(N)nccn23)CC2CC21 (stereo not drawn) [Example 50]	69

Structure (SMILES)	IC50 [nM]
CC#CC(=O)N1C(c2nc(-c3ccc(C(=O)Nc4cc(C(F)(F)F)ccn4)cc3)c3c(N)nccn23)CC2CC21 (stereo not drawn) [Example 51]	54
CC#CC(=O)N1C2C[C@@H](C1c1nc(-c3ccc(C(=O)Nc4cc(C(F)(F)F)ccn4)cc3)c3c(N)nccn13)N(C(C)C)C2 (stereo partly drawn) [Example 57]	59
C=CC(=O)N1CCC2CC21c1nc(-c2ccc(C(=O)Nc3cc(C(F)(F)F)ccn3)cc2)c2c(N)nccn12 (stereo not drawn) [Example 58]	78
CC#CC(=O)N1CCC2CC21c1nc(-c2ccc(C(=O)Nc3cc(C(F)(F)F)ccn3)cc2)c2c(N)nccn12 (stereo not drawn) [Example 59]	97
C=CC(=O)N1C[C@H]2[C@@H]([C@H]1c1nc(-c3ccc(C(=O)Nc4cc(C)ccn4)cc3)c3c(N)nccn13)C2(C)C [Example 60]	51
CC#CC(=O)N1C[C@H]2[C@@H]([C@H]1c1nc(-c3ccc(C(=O)Nc4cc(C)ccn4)cc3)c3c(N)nccn13)C2(C)C [Example 61]	31
CC#CC(=O)N1C2CC[C@@H](C2)C1c1nc(-c2ccc(C(=O)Nc3cc(C)ccn3)cc2)c2c(N)nccn12 (stereo partly drawn) [Example 63]	57
C=CC(=O)N1C(c2nc(-c3ccc(C(=O)Nc4cc(C)ccn4)cc3)c3c(N)nccn23)CC2CC21 (stereo not drawn) [Example 64]	87
CC#CC(=O)N1C(c2nc(-c3ccc(C(=O)Nc4cc(C)ccn4)cc3)c3c(N)nccn23)CC2CC21 (stereo not drawn) [Example 65]	58
C=CC(=O)N1C2CN[C@@H](C2)C1c1nc(-c2ccc(C(=O)Nc3cc(Cl)ccn3)cc2)c2c(N)nccn12 (stereo partly drawn) [Example 72]	97
C=CC(=O)N1C[C@H]2[C@@H]([C@H]1c1nc(-c3ccc(C(C)(O)c4ccccc4)cc3)c3c(N)nccn13)C2(C)C (stereo partly drawn) [Example 75]	57
CC#CC(=O)N1C[C@H]2[C@@H]([C@H]1c1nc(-c3ccc(C(C)(O)c4ccccc4)cc3)c3c(N)nccn13)C2(C)C (stereo partly drawn) [Example 76]	46
CC#CC(=O)N1CC2CCCC2C1c1nc(-c2ccc(C(C)(O)c3ccccc3)cc2)c2c(N)nccn12 (stereo not drawn) [Example 78]	18.4
C=CC(=O)N1C(c2nc(-c3ccc(C(C)(O)c4ccccc4)cc3)c3c(N)nccn23)CC2CC21 (stereo not drawn) [Example 81]	178
CC#CC(=O)N1C(c2nc(-c3ccc(C(C)(O)c4ccccc4)cc3)c3c(N)nccn23)CC2CC21 (stereo not drawn) [Example 82]	382
CC#CC(=O)N1CCC2CC21c1nc(-c2ccc(C(C)(O)c3ccccc3)cc2)c2c(N)nccn12 (stereo not drawn) [Example 83]	46
C=CC(=O)N1C2C[C@@H](C1c1nc(-c3ccc(C(C)(O)c4ccccc4)cc3)c3c(N)nccn13)N(C)C2 (stereo partly drawn) [Example 88]	51
C=CC(=O)N1C2C[C@@H](C1c1nc(-c3ccc(C(C)(O)c4ccccc4)cc3)c3c(N)nccn13)N(C(C)=O)C2 (stereo partly drawn) [Example 90]	79
C=CC(=O)N1C(c2nc(-c3ccc(Oc4ccccc4)cc3)c3c(N)nccn23)CC2CC21 (stereo not drawn) [Example 100]	67
CC#CC(=O)N1C(c2nc(-c3ccc(Oc4ccccc4)cc3)c3c(N)nccn23)CC2CC21 (stereo not drawn) [Example 101]	77
C=CC(=O)N1CCC2CC21c1nc(-c2ccc(Oc3ccccc3)cc2)c2c(N)nccn12 (stereo not drawn) [Example 102]	175
CC#CC(=O)N1CCC2CC21c1nc(-c2ccc(Oc3ccccc3)cc2)c2c(N)nccn12 (stereo not drawn) [Example 103]	271
